{
  "source": "ChEMBL document CHEMBL2073965",
  "about": "“Kinetic analysis of the primary active transport of conjugated metabolites across the bile canalicular membrane: comparative study of S-(2,4-dinitrophenyl)-glutathione and 6-hydroxy-5,7-dimethyl-2-methylamino-4-(3-pyridylmethyl)benzothiazole glucuronide” (J Pharmacol Exp Ther, 1997)",
  "type_in_all_cases": "functional, cell membranes, Sprague-Dawley, Bile canalicular membrane vesicle",
  "key": {"[1]": {"molecular_target": "T1, ATP-binding cassette sub-family C member 2 (Rattus norvegicus, UniProt Q63120)", "test": "TP_TRANSPORTER: inhibition of DNP-SG uptake in bile canalicular membrane vesicles from SD rat"}, "[2]": {"molecular_target": "T1, ATP-binding cassette sub-family C member 2", "test": "TP_TRANSPORTER: inhibition of DNP-SG uptake (DNP-SG: 1 uM, 4MUG: 500 uM) in bile canalicular membrane vesicles from SD rat"}, "[3]": {"substrate": "N[C@@H](CCC(=O)N[C@H](CSc1ccc([N+](=O)[O-])cc1[N+](=O)[O-])C(=O)NCC(=O)O)C(=O)O", "test": "(§1) TP_TRANSPORTER: uptake in bile canalicular membrane vesicles from SD rat"}, "[4]": {"substrate": "CNc1nc2c(Cc3cccnc3)c(C)c(O[C@@H]3O[C@H](C(=O)O)[C@@H](O)[C@H](O)[C@H]3O)c(C)c2s1", "test": "as §1"}},
  "data": [
    {"molecule": "CNc1nc2c(Cc3cccnc3)c(C)c(O[C@@H]3O[C@H](C(=O)O)[C@@H](O)[C@H](O)[C@H]3O)c(C)c2s1", "note": "[E3040 GLUCURONIDE]", "values": [
      {"measurement": "Ki", "setting": "[1]", "value": 3.84, "unit": "µM"}
    ]},
    {"molecule": "O=C(O)[C@H]1O[C@@H](OCc2cc(=O)oc3cc(O)ccc23)[C@H](O)[C@@H](O)[C@@H]1O", "values": [
      {"measurement": "Activity", "setting": "[2]", "value": "inhibitor [+]"}
    ]},
    {"molecule": "ATP-binding cassette sub-family C member 2 (Rattus norvegicus) (protein) MDKFCNSTFWDLSLLESPEADLPLCFEQTVLVWIPLGFLWLLAPWQLYSVYRSRTKRSSITKFYLAKQVFVVFLLILAAIDLSLALTEDTGQATVPPVRYTNPILYLCTWLLVLAVQHSRQWCVRKNSWFLSLFWILSVLCGVFQFQTLIRALLKDSKSNMAYSYLFFVSYGFQIVLLILTAFSGPSDSTQTPSVTASFLSSITFSWYDRTVLKGYKHPLTLEDVWDIDEGFKTRSVTSKFEAAMTKDLQKARQAFQRRLQKSQRKPEATLHGLNKKQSQSQDVLVLEEAKKKSEKTTKDYPKSWLIKSLFKTFHVVILKSFILKLIHDLLVFLNPQLLKLLIGFVKSSNSYVWFGYICAILMFAVTLIQSFCLQSYFQHCFVLGMCVRTTVMSSIYKKALTLSNLARKQYTIGETVNLMSVDSQKLMDATNYMQLVWSSVIQITLSIFFLWRELGPSILAGVGVMVLLIPVNGVLATKIRNIQVQNMKNKDKRLKIMNEILSGIKILKYFAWEPSFQEQVQGIRKKELKNLLRFGQLQSLLIFILQITPILVSVVTFSVYVLVDSANVLNAEKAFTSITLFNILRFPLSMLPMVTSSILQASVSVDRLERYLGGDDLDTSAIRRVSNFDKAVKFSEASFTWDPDLEATIQDVNLDIKPGQLVAVVGTVGSGKSSLVSAMLGEMENVHGHITIQGSTAYVPQQSWIQNGTIKDNILFGSEYNEKKYQQVLKACALLPDLEILPGGDMAEIGEKGINLSGGQKQRVSLARAAYQDADIYILDDPLSAVDAHVGKHIFNKVVGPNGLLAGKTRIFVTHGIHFLPQVDEIVVLGKGTILEKGSYRDLLDKKGVFARNWKTFMKHSGPEGEATVNNDSEAEDDDDGLIPTMEEIPEDAASLAMRRENSLRRTLSRSSRSSSRRGKSLKNSLKIKNVNVLKEKEKEVEGQKLIKKEFVETGKVKFSIYLKYLQAVGWWSILFIILFYGLNNVAFIGSNLWLSAWTSDSDNLNGTNNSSSHRDMRIGVFGALGLAQGICLLISTLWSIYACRNASKALHGQLLTNILRAPMRFFDTTPTGRIVNRFSGDISTVDDLLPQTLRSWMMCFFGIAGTLVMICMATPVFAIIIIPLSILYISVQVFYVATSRQLRRLDSVTKSPIYSHFSETVTGLPIIRAFEHQQRFLAWNEKQIDINQKCVFSWITSNRWLAIRLELVGNLVVFCSALLLVIYRKTLTGDVVGFVLSNALNITQTLNWLVRMTSEAETNIVAVERISEYINVENEAPWVTDKRPPADWPRHGEIQFNNYQVRYRPELDLVLKGITCNIKSGEKVGVVGRTGAGKSSLTNCLFRILESAGGQIIIDGIDVASIGLHDLRERLTIIPQDPILFSGSLRMNLDPFNKYSDEEVWRALELAHLRSFVSGLQLGLLSEVTEGGDNLSIGQRQLLCLGRAVLRKSKILVLDEATAAVDLETDSLIQTTIRKEFSQCTVITIAHRLHTIMDSDKIMVLDNGKIVEYGSPEELLSNRGSFYLMAKEAGIENVNHTEL", "values": [
      {"measurement": "Km", "setting": "[3]", "value": 17.6, "unit": "µM"},
      {"measurement": "Km", "setting": "[4]", "value": 5.7, "unit": "µM"}
    ]}
  ]
}
